Broadly, the EC50 is the concentration at which the effect is half-maximal.

Numbered stars: 1 amine (or outer) side, 2 acyl side, 3 side chain; on linkers, the order of the positions; unused ones are H or OH. Bridge positions count the residues as written; N and C are the ends. Square brackets hold non-standard residues; d marks the D form. Peptide text beside a SMILES is read from it. * marks the point of attachment. C20 diacid = O=C(O)CCCCCCCCCCCCCCCCCCC(=O)*; γGlu = O=C(O)[C@H](CCC(=O)[*:2])N[*:1]; Hyp = O=C(O)[C@@H]1C[C@@H](O)CN1 Bounds are passed on as bounds.

The values below come from patent US12139520B2 (priority 2020, dated 2024).

Series [1] concerns the target hAM1 receptor (Homo sapiens, UniProt O60895+Q16602). The experiment in a line: cAMP assay for in vitro receptor activation, hAM1-R. It is filed as cell-based. To be noted: cAMP assay, hAM1 receptor; read-out: hAM1R EC50. On the procedure:
General Protocols for cAMP Assays for Measuring In Vitro Receptor Activation
Cells stably overexpressing the hAM1 receptor were obtained from Ogeda (now Astellas Pharma), sub-cloned and a monoclonal cell-line with an appropriate assay-window was expanded, aliquoted and frozen. An aliquot was thawed and plated in DPBS with 0.05% casein and 0.5 mM IBMX as 8000 cells/well in a 384-well format.
In general terms: Changes in cAMP serve as a functional read-out for many G protein-coupled receptors.

A short description of series [2]: Physical stability of peptide analogues (Thioflavin T fibrillation). It is filed as physicochemical. To be noted: maximum ThT signal normalized between hAMY maximum and buffer background; 40° C., shaking, four days; pH 7 per table title. The method in brief:
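Samples are stressed at 40 °C for four days, being shaken at 700 rpm before each 10-min fluorescence reading of 4 μM Thioflavin T. Buffers were pH 4 acetate or pH 7 phosphate. Reported values are smoothed maximum ThT signals as a percentage of the hAMY-to-background range.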

For series [3], the target named is T1, hAMY3 receptor (Homo sapiens, UniProt O60896+P30988).
T1 sequence (P30988 25-474): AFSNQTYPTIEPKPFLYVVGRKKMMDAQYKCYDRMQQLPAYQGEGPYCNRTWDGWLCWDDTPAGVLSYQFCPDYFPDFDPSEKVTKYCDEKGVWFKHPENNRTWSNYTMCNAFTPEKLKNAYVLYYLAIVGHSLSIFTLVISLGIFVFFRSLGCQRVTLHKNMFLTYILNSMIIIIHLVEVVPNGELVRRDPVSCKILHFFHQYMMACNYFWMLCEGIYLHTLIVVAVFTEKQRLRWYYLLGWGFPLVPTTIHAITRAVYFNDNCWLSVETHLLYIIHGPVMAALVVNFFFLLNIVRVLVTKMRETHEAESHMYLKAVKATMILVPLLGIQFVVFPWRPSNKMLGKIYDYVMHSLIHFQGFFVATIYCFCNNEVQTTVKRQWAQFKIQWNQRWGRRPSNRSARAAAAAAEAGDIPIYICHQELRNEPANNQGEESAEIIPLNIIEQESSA
T1 sequence (O60896 24-148 partner): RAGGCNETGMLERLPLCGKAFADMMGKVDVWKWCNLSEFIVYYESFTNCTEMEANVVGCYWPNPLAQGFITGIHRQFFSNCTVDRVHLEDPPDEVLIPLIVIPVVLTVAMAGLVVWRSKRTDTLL
The experiment in a line: cAMP assay for in vitro receptor activation, hAMY3-R. It is filed as cell-based. The conditions noted are these: cAMP assay, hAMY3 receptor; read-out: hAMY3R EC50. The procedure, abridged:
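Accumulated cAMP was detected by time-resolved FRET one hour after reagent addition. Beforehand, hAMY3-R-overexpressing monoclonal cells (2000/well, DPBS, 0.05% casein, 0.5 mM IBMX) received graded doses of compound for 30 min at room temperature; human amylin served as positive control.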

Chain of hAM1 receptor (Q16602 23-461): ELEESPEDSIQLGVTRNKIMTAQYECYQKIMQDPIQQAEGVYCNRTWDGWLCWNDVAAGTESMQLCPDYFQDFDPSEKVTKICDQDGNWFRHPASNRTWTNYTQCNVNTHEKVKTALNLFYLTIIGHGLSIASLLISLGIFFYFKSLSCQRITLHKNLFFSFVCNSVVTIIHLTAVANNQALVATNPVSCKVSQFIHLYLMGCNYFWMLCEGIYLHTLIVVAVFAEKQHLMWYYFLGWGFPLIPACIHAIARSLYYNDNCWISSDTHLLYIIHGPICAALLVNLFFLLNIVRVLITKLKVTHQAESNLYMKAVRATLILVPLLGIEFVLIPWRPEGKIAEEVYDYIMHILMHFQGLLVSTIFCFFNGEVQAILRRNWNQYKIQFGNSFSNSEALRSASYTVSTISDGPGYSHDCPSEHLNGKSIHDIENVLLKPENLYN
Chain of hAM1 receptor (O60895 43-175 partner): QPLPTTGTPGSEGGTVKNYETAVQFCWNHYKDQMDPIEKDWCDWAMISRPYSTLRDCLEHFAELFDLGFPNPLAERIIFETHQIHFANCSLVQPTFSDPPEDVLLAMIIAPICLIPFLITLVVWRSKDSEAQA

Take `CC[C@H](C)[C@H](NC(=O)[C@H](C)NC(=O)CNC(=O)[C@H](Cc1ccccc1)NC(=O)[C@H](CC(N)=O)NC(=O)[C@H](CC(N)=O)NC(=O)[C@H](CO)NC(=O)[C@H](CO)NC(=O)[C@H](Cc1c[nH]cn1)NC(=O)[C@@H](NC(=O)[C@H](CC(C)C)NC(=O)[C@H](Cc1ccccc1)NC(=O)[C@H](CC(N)=O)NC(=O)[C@H](C)NC(=O)[C@H](CC(C)C)NC(=O)[C@H](CCCNC(=N)N)NC(=O)[C@H](CCC(N)=O)NC(=O)[C@@H](NC(=O)[C@H](C)NC(=O)[C@@H]1CSSC[C@H](NC(=O)[C@@H](N)CCCCN)C(=O)N[C@@H](CC(N)=O)C(=O)N[C@@H]([C@@H](C)O)C(=O)N[C@@H](C)C(=O)N[C@@H]([C@@H](C)O)C(=O)N1)[C@@H](C)O)C(C)C)C(=O)N[C@@H](CC(C)C)C(=O)N1CCC[C@H]1C(=O)N[C@@H](CO)C(=O)N[C@H](C(=O)N[C@@H](CCCCN)C(=O)N[C@H](C(=O)NCC(=O)N[C@@H](CO)C(=O)N[C@@H](CC(N)=O)C(=O)NCC(=O)N[C@@H](Cc1ccc(O)cc1)C(N)=O)[C@@H](C)CC)[C@@H](C)O` [compound 207] (H-KCNTATCATQRLANFLVHSSNNFGAILPSTKIGSNGY-NH2; disulfide 2-7; N-terminus assumed): the EC50 in series [1] was over 5000 nM.

Turning to `CC[C@H](C)[C@H](NC(=O)[C@H](CCC(N)=O)NC(=O)[C@H](Cc1c[nH]cn1)NC(=O)[C@H](C)NC(=O)[C@H](CC(C)C)NC(=O)[C@H](CCCNC(=N)N)NC(=O)[C@H](CCC(N)=O)NC(=O)[C@@H](NC(=O)[C@@H](NC(=O)[C@@H]1CSSC[C@H](NC(=O)[C@H](CCCCN)NC(=O)CC[C@H](NC(=O)CCCCCCCCCCCCCCCCCCC(=O)O)C(=O)O)C(=O)N[C@@H](CC(N)=O)C(=O)N[C@@H]([C@@H](C)O)C(=O)N[C@@H](Cc2ccc(O)cc2)C(=O)N[C@@H]([C@@H](C)O)C(=O)N1)[C@@H](C)O)C(C)C)C(=O)N[C@@H](Cc1ccc(O)cc1)C(=O)N[C@@H](CCC(N)=O)C(=O)N[C@@H](Cc1ccccc1)C(=O)N[C@H](C(=O)N[C@@H](CC(=O)O)C(=O)N[C@@H](CCCCN)C(=O)N[C@@H](CC(=O)O)C(=O)N[C@@H](CCCCN)C(=O)N[C@@H](CC(=O)O)C(=O)N[C@@H](CC(N)=O)C(=O)N[C@H](C(=O)N[C@@H](C)C(=O)N1CCC[C@H]1C(=O)N1CCC[C@H]1C(=O)N[C@H](C(=O)N[C@@H](CC(N)=O)C(=O)N[C@H](C(=O)NCC(=O)N[C@@H](CO)C(=O)N[C@@H](CC(N)=O)C(=O)NCC(=O)N1C[C@H](O)C[C@H]1C(N)=O)C(C)C)[C@@H](C)O)C(C)C)[C@@H](C)O` [compound 231] ({C20 diacid-γGlu}-KCNTYTCTVQRLAHQIYQFTDKDKDNVAPPTNVGSNG[Hyp]-NH2; disulfide 2-7), in series [1], the EC50 is over 5000 nM.

On to `CC[C@H](C)[C@H](NC(=O)[C@H](CCCCN)NC(=O)[C@H](CO)NC(=O)[C@H](CCCNC(=N)N)NC(=O)[C@@H]1CCCN1C(=O)[C@H](C)NC(=O)[C@@H](NC(=O)[C@H](CC(N)=O)NC(=O)[C@H](CC(=O)O)NC(=O)[C@H](CCCCN)NC(=O)[C@H](CC(=O)O)NC(=O)[C@H](CCCCN)NC(=O)[C@H](CC(=O)O)NC(=O)[C@@H](NC(=O)[C@H](Cc1ccccc1)NC(=O)[C@H](CCC(N)=O)NC(=O)[C@@H](NC(=O)[C@H](CC(C)C)NC(=O)[C@H](Cc1ccccc1)NC(=O)[C@H](CC(N)=O)NC(=O)[C@H](C)NC(=O)[C@H](CC(C)C)NC(=O)[C@H](CCCNC(=N)N)NC(=O)[C@H](CCC(N)=O)NC(=O)[C@@H](NC(=O)[C@H](C)NC(=O)[C@@H]1CSSC[C@H](NC(=O)[C@@H](N)CCCCN)C(=O)N[C@@H](CC(N)=O)C(=O)N[C@@H]([C@@H](C)O)C(=O)N[C@@H](C)C(=O)N[C@@H]([C@@H](C)O)C(=O)N1)[C@@H](C)O)C(C)C)[C@@H](C)O)C(C)C)C(=O)N[C@@H](CO)C(=O)N1CCC[C@H]1C(=O)N[C@@H](CCC(N)=O)C(=O)NCC(=O)N[C@@H](Cc1ccc(O)cc1)C(N)=O` [compound 234] (H-KCNTATCATQRLANFLVQFTDKDKDNVAPRSKISPQGY-NH2; disulfide 2-7; N-terminus assumed), for which, in series [1], the EC50 was over 5000 nM. As for `CC[C@H](C)[C@H](NC(=O)[C@H](CCC(N)=O)NC(=O)[C@H](Cc1c[nH]cn1)NC(=O)[C@H](C)NC(=O)[C@H](CC(C)C)NC(=O)[C@H](CCCNC(=N)N)NC(=O)[C@H](CCC(N)=O)NC(=O)[C@@H](NC(=O)[C@@H](NC(=O)[C@@H]1CSSC[C@H](NC(=O)CN)C(=O)N[C@@H](CCCNC(=N)N)C(=O)N[C@@H](Cc2ccccc2)C(=O)NCC(=O)N[C@@H]([C@@H](C)O)C(=O)N1)[C@@H](C)O)C(C)C)C(=O)N[C@@H](Cc1ccc(O)cc1)C(=O)N[C@@H](CCC(N)=O)C(=O)N[C@@H](Cc1ccccc1)C(=O)N[C@H](C(=O)N[C@@H](CC(=O)O)C(=O)N[C@@H](CCCCN)C(=O)N[C@@H](CC(=O)O)C(=O)N[C@@H](CCCCN)C(=O)N[C@@H](CC(=O)O)C(=O)N[C@@H](CC(N)=O)C(=O)N[C@H](C(=O)N[C@@H](C)C(=O)N1CCC[C@H]1C(=O)N[C@@H](CCCNC(=N)N)C(=O)N[C@H](C(=O)N[C@@H](CCCCN)C(=O)N[C@H](C(=O)N[C@@H](CO)C(=O)N1CCC[C@H]1C(=O)N[C@@H](CC(N)=O)C(=O)NCC(=O)N[C@@H](Cc1ccc(O)cc1)C(N)=O)C(C)C)[C@@H](C)O)C(C)C)[C@@H](C)O` [compound 385] (H-GCRFGTCTVQRLAHQIYQFTDKDKDNVAPRTKVSPNGY-NH2; disulfide 2-7; N-terminus assumed), in series [2], the “Max ThT signal (%)” value was found to be 8.800%. Moreover, the EC50 in series [3] is 0.036 nM.

On to `CC[C@H](C)[C@H](NC(=O)[C@H](CCCCN)NC(=O)[C@H](CO)NC(=O)[C@H](CCCNC(=N)N)NC(=O)[C@@H]1CCCN1C(=O)[C@H](C)NC(=O)[C@@H](NC(=O)[C@H](CC(N)=O)NC(=O)[C@H](CC(=O)O)NC(=O)[C@H](CCCCN)NC(=O)[C@H](CC(=O)O)NC(=O)[C@H](CCCCN)NC(=O)[C@H](CC(=O)O)NC(=O)[C@@H](NC(=O)[C@H](Cc1ccccc1)NC(=O)[C@H](CCC(N)=O)NC(=O)[C@H](Cc1ccc(O)cc1)NC(=O)[C@@H](NC(=O)[C@H](CCC(N)=O)NC(=O)[C@H](Cc1c[nH]cn1)NC(=O)[C@H](C)NC(=O)[C@H](CC(C)C)NC(=O)[C@H](CCCNC(=N)N)NC(=O)[C@H](CCC(N)=O)NC(=O)[C@@H](NC(=O)[C@@H](NC(=O)[C@@H]1CSSC[C@H](NC(=O)CN)C(=O)N[C@@H](CCCNC(=N)N)C(=O)N[C@@H](Cc2ccccc2)C(=O)NCC(=O)N[C@@H]([C@@H](C)O)C(=O)N1)[C@@H](C)O)C(C)C)[C@@H](C)CC)[C@@H](C)O)C(C)C)C(=O)NCC(=O)N1CCC[C@H]1C(=O)N[C@@H](CCC(N)=O)C(=O)NCC(=O)N[C@@H](Cc1ccc(O)cc1)C(N)=O` [compound 387] (H-GCRFGTCTVQRLAHQIYQFTDKDKDNVAPRSKIGPQGY-NH2; disulfide 2-7; N-terminus assumed), for which, in series [2], the “Max ThT signal (%)” value was found to be 14.300%. In addition, the 50% effective concentration (EC50) in series [3] is 0.04 nM. Regarding `CC[C@H](C)[C@H](NC(=O)[C@H](CCCCN)NC(=O)[C@@H](NC(=O)[C@H](CCCNC(=N)N)NC(=O)[C@@H]1CCCN1C(=O)[C@H](C)NC(=O)[C@@H](NC(=O)[C@H](CC(N)=O)NC(=O)[C@H](CC(=O)O)NC(=O)[C@H](CCCCN)NC(=O)[C@H](CC(=O)O)NC(=O)[C@H](CCCCN)NC(=O)[C@H](CC(=O)O)NC(=O)[C@@H](NC(=O)[C@H](Cc1ccccc1)NC(=O)[C@H](CCC(N)=O)NC(=O)[C@H](Cc1ccc(O)cc1)NC(=O)[C@@H](NC(=O)[C@H](CCC(N)=O)NC(=O)[C@H](Cc1c[nH]cn1)NC(=O)[C@H](C)NC(=O)[C@H](CC(C)C)NC(=O)[C@H](CCCNC(=N)N)NC(=O)[C@H](CCC(N)=O)NC(=O)[C@@H](NC(=O)[C@@H](NC(=O)[C@@H]1CSSC[C@H](NC(=O)CN)C(=O)N[C@@H](CCCNC(=N)N)C(=O)N[C@@H](Cc2ccccc2)C(=O)NCC(=O)N[C@@H]([C@@H](C)O)C(=O)N1)[C@@H](C)O)C(C)C)[C@@H](C)CC)[C@@H](C)O)C(C)C)[C@@H](C)O)C(=O)NCC(=O)N1CCC[C@H]1C(=O)N[C@@H](CCC(N)=O)C(=O)NCC(=O)N[C@@H](Cc1ccc(O)cc1)C(N)=O` [compound 391] (H-GCRFGTCTVQRLAHQIYQFTDKDKDNVAPRTKIGPQGY-NH2; disulfide 2-7; N-terminus assumed), in series [2], the “Max ThT signal (%)” value was found to be 3.700%. For the same compound, the EC50 in series [3] amounted to 0.068 nM.
